Tests used:
PTEN = test: Immunoblot of PTEN in TOPK-transfected CL1-0 cells treated with inhibitor; format: cell-based, human; conditions: LY294002 10 μM
Method: CL1-0 (C, left), H1299 (C, right), and IMR90 (D) cells were transiently transfected with a vector control or pCMV2-Flag-TOPK (WT) or pCMV2-Flag-TOPK (KD) plasmid; twenty-two hours after transfection, a fraction of the cells was harvested for immunoblotting as indicated in (B); the migration and cell viability of TOPK-overexpressing IMR90 cells was also evaluated as described previously (D, right panel) (*P<0.05, **P<0.01, ***P<0.001);
To determine whether TOPK mediated AKT-dependent cell mortility by regulating the PTEN protein level, we first examined whether co-treating cells with LY294002, a PI3K inhibitor, could affect the TOPK-induced decrease in PTEN. […] Moreover, when PTEN was ectopically expressed, TOPK-induced phosphorylation of AKT-Ser^473 was blocked in a dose-dependent manner (FIG. 5A).

CL1-0 cells = test: Transwell migration of TOPK-overexpressing CL1-0 cells with pharmacological inhibitors; format: cell-based, human; conditions: CL1-0 cells transfected with pCMV2-Flag-TOPK; inhibitor 10 μM, 2 hrs
Method: All cell culture related reagents were purchased from Invitrogen. […] All cells were cultured in appropriate medium, e.g., RPMI 1640 for A549, CL1-0 and CL1-5; DMEM for IMR90, H1299 and H23. Each medium were supplemented with 10% fetal bovine serum, 2 mM of L-glutamine and 1% penicillin/streptomycin. Transfection of cells was done using lipofetamine (Invitrogen) according to the manufacturer's instructions. […] At 24 or 48 hr post-transfection, cells were harvested and subjected to a migration or proliferation assay and the protein level of TOPK was determined by western blotting as described previously (Chen et al 2009a). Pharmacological inhibitors used (LY294002, U0126, and SB203580) were from Cell Signaling.

CL152 cells = test: MTT cell viability after cisplatin in siRNA-transfected CL152 cells; format: cell-based; conditions: cisplatin 35 μM, 48 hr
Method: After 48 hr, MTT assays were performed to examine the cell viability (n=3, ** P<0.01).
(§1) Different lung cancer cell lines have been previously analyzed for the expression level of TOPK (data not shown). […] Recently, we have tested the knockdown effect of TOPK in promoting cisplatin-induced cytotoxicity in other lung cancer cells, such as CL152 and CL141 cells.

phospho-H2AX (γ-H2AX) = test: Immunoblot of cisplatin-induced H2AX phosphorylation; format: cell-based, human; conditions: cisplatin 35 μM; for cisplatin-induced γ-H2AX after TOPK shRNA: A549-Luc cells stably transfected with shRNA
Text: Cells were harvested for detecting the expression of phospho-H2AX (γ-H2AX), H2AX and TOPK by immunoblotting.
Platinum-based combination chemotherapy (i.e. cisplatin) is recognized as the first-line standard of care in NSCLC. […]

[1] = human, in vivo; cited from earlier work
pAKT = test: Immunoblot of EGF-induced AKT phosphorylation in A549-Luc cells; format: cell-based, human; conditions: A549-Luc stably transfected with shRNA; serum deprived 24 hrs; EGF 20 ng/ml, 0-30 min
Method: FIG. 15 provides the results of knockdown of TOPK decreasing EGF-induced AKT phosphorylation in A549-Luc cells. shNC, shTOPK-3 (SEQ ID NO: 3), and shTOPK-4 (SEQ ID NO: 4) stably transfected A549-Luc cells were serum deprived for 24 hrs. EGF (20 ng/ml) was added to stimulate cells for 0˜30 min as indicated. Then, cells were harvested for detecting the expression of pAKT, AKT and TOPK by immunoblotting.
as §1

| Compound | increase in cell migration stimulated by ectopic expression of TOPK (CL1-0 cells) | cisplatin-induced γ-H2AX after TOPK shRNA (phospho-H2AX (γ-H2AX)) | EGF-induced AKT phosphorylation (pAKT) | further results |
| --- | --- | --- | --- | --- |
| O=c1cc(N2CCOCC2)oc2c(-c3ccccc3)cccc12 [LY294002] | – | – | – | TOPK-induced reduction of PTEN (PTEN): no effect |
| C[S+]([O-])c1ccc(-c2nc(-c3ccncc3)c(-c3ccc(F)cc3)[nH]2)cc1 (stereo not shown) [SB203580] | inhibited to a smaller extent | – | – | – |
| N#CC(=C(/N)Sc1ccccc1N)/C(C#N)=C(\N)Sc1ccccc1N [U0126] | inhibited to a smaller extent | – | – | – |
| N.N.[Cl][Pt][Cl] [cisplatin] | – | – | – | cell death induced by cisplatin (CL152 cells): ~90%; time of peak of cisplatin-induced γ-H2AX (phospho-H2AX (γ-H2AX); A549 control cells): 12 h; concentration found in the serum of cisplatin-treated patients [1]: 35 µM |
| shTOPK-3: shRNA having a sequence as set forth in SEQ ID NO:3 (TGACCCTGAGGCTTGTTACAT; shRNA, further chemistry not given here) | – | significantly decreasing | decreasing | – |
| shTOPK-4: shRNA having a sequence as set forth in SEQ ID NO:4 (TGTGGGAAATGATGACTTTAT; shRNA, further chemistry not given here) | – | significantly decreasing | decreasing | – |
